Results on eight compounds are retold here after US11072619B2, “Pyrazole[1,5-a] pyrimidine derivatives as kinase JAK inhibitors” (CELON PHARMA S.A., priority 2017, dated 2021).

One assay deals with Recombinant kinase JAK1 (Homo sapiens (Human), UniProt P23458). The assay can be described thus: In vitro JAK kinase inhibition assay (ADP-Glo), JAK1. The class given is biochemical. The note with it: 30 μM ATP, peptide IRS-1, averaged. As for the experimental part:
(§1) In Vitro JAK Kinase Inhibition Assay
(§2) The effects of the compounds of the invention were analysed in vitro using kinase JAK inhibition assay described below.
(§3) Tested compounds were dissolved in 100% DMSO, and obtained stock solutions were serially diluted in the reaction buffer (50 mM Tris pH 7.5, 10 mM MgCl2, 0.25 mM EGTA, 0.1 mM Na3VO4, 0.01% Triton X-100, 2.5 mM DTT). Recombinant kinases JAK1 (ProQinase), JAK2, or JAK3 (Carna Biosciences) were diluted in the dilution buffer (50 mM Tris-HCl pH 7.5, 150 mM NaCl, 10% glycerol, 0.05% Triton X-100, 1 mM DTT) to the final concentration 3 ng/μL (JAK1), 0.1 ng/μL (JAK2), or 0.2 ng/μL (JAK3). 5 μL of obtained solution of the compounds and 5 μL of the solution of respective kinases were added to the well of a 96-well plate. To initiate interaction between tested compounds and an enzyme, the plate was incubated for 10 minutes at 25° C. in a Plate-Thermo-Shaker with orbital stirring at 400 rpm. Wells of a negative control contained all reagents as mentioned above with the exception of tested compounds and kinase, and wells of a positive controls contained all reagents as mentioned above with the exception of tested compounds. Enzymatic reaction was initiated by the addition of 15 μL of the following solution: 5× concentrated reaction buffer (50 mM Tris pH 7.5, 10 mM MgCl2, 0.25 mM EGTA, 0.1 mM Na3VO4, 0.01% Triton X-100, 2.5 mM DTT), water, 30 μM ATP and for particular kinases: JAK1—60 μM peptide IRS-1 (Enzo), JAK2 or JAK3—10 μM peptide IGF-1Rtide (Lipopharm). Then the plate was incubated for 1 hour at 25° C. in a Plate-Thermo-Shaker, with orbital stirring at 400 rpm. Detection of ADP formed in the enzymatic reaction was then performed using ADP-Glo Kinase Assay kit (Promega). For this purpose, to the well of the 96-well plate 25 μL of ADP-Glo Reagent were added, and the plate was incubated for 40 minutes at 25° C. in a Plate-Thermo-Shaker with orbital stirring at 400 rpm. Then to the well of the 96-well plate 50 μL of Kinase Detection Reagent were added and the plate was incubated for 30 minutes at 25° C. in a Plate-Thermo-Shaker with orbital stirring at 400 rpm. After incubation, luminescence intensity was measured using Victor×Light luminometer (Perkin Elmer, Inc.).
(§4) On the basis of luminescence measurement in wells containing tested compounds at various concentrations and in control wells, IC50 values were determined. These values were determined with Graph Pad software v. 5.03, by fitting points of the curve using non-linear regression method. Each compound was tested in at least 6 repetitions (6 wells) on two 96-well plates, using at least 3 wells of each control.
(§5) Averaged results of kinases JAK inhibition activity for selected compounds of the present invention are presented below in Table 1.
(In general: ADP-Glo turns the ADP formed in a reaction into a luminescent signal.)

A further assay addresses Recombinant kinase JAK2 (Homo sapiens (Human), UniProt O60674). The assay can be described thus: In vitro JAK kinase inhibition assay (ADP-Glo), JAK2. The class given is biochemical. As to conditions: 30 μM ATP, peptide IGF-1Rtide, averaged. The method, then: as §1, §2
as §3, with “Enzymatic reaction was initiated by the addition of 15 μL of the following solution: 5× concentrated reaction buffer (50 mM Tris pH 7.5, 10 mM MgCl2, 0.25 mM EGTA, 0.1 mM Na3VO4, 0.01% Triton X-100, 2.5 mM DTT), water, 30 μM ATP and for particular kinases: JAK1—60 μM peptide IRS-1 (Enzo), JAK2 or JAK3—10 μM peptide IGF-1Rtide (Lipopharm).” left out
as §4

The next assay has as its target Recombinant kinase JAK3 (Homo sapiens (Human), UniProt P52333). The experiment in a line: In vitro JAK kinase inhibition assay (ADP-Glo), JAK3. The format is biochemical. As to conditions: 30 μM ATP, peptide IGF-1Rtide, averaged. The method, then: as §1, §2, §3, §4, §5
For assay [1], the system named is TF-1 cells. The experiment in a line: TF-1 cells viability in vitro in the presence of IL-3 (JAK2 activation). The format is cell-based. As to conditions: Homo sapiens, 5 ng/mL IL-3, 72 hours, ATPlite, read-out: JAK2 IL3 (EC50, inhibition of viability of TF-1 cells). The method, then: (§6) Assay for TF-1 Cells Viability In Vitro
(§7) The effects of the activity of the compounds of the invention were tested in vitro using cells viability assay described below.
Tested compounds were dissolved in 100% DMSO, and obtained stock solutions were serially diluted in OptiMEM medium (Reduced Serum Medium-Thermo Fisher Scientific). […] To a well of the 96-well plate 10 μL of the prepared 10× stock solutions of the compounds. Cells on 96-well plates were incubated with the compounds for 72 hours at 37° C., 5% CO2. Subsequently, viability of the cells was measured using ATPlite kit (Perkin Elmer). For this purpose, 50 μL of lysis buffer (mammalian cell lysis solution) were added to a well of the 96-well plate and the plate was incubated for 10 minutes at 25° C. in a plate thermo-shaker with orbital stirring at 600 rpm. Then to a well of the 96-well plate 50 μL of substrate (substrate solution) were added and incubated for 15 minutes at in dark, in a plate thermo-shaker with orbital stirring at 600 rpm. After incubation time, luminescence intensity in a well was measured using Victor×Light luminometer (Perkin Elmer, Inc.).
On the basis of luminescence intensity measurements in well containing tested compounds at various concentrations and in control wells EC50 values were determined. These values were determined with Graph Pad software v. […] Each compound was tested in at least 6 repetitions (6 wells) on two 96-well plates, using at least 3 wells of each control.

Assay [2] has as its system TF-1 cells. The experiment in a line: TF-1 cells viability in vitro in the presence of IL-4 (JAK1/JAK3 activation). The note with it: for IC50: Homo sapiens, TF-1, 20 ng/mL IL-4, 72 hours, ATPlite, read-out: JAK1,3 IL4 (EC50, inhibition of viability of TF-1 cells); for JAK2/JAK1,3 Ratio: ratio of TF-1 viability EC50 with IL3 to EC50 with IL4. The class given is cell-based. As for the experimental part: as §6, §7
Tested compounds were dissolved in 100% DMSO, and obtained stock solutions were serially diluted in OptiMEM medium (Reduced Serum Medium-Thermo Fisher Scientific). TF-1 cells (DSMZ no.: ACC 334) in culture medium (80% RPMI 1640+20% FBS) ad in the presence of 5 ng/mL IL-3 or 20 ng/mL IL-4 were deposited on 96-well plates in the volume of 90 μl per well, 10 thousands of cells per well. To a well of the 96-well plate 10 μL of the prepared 10× stock solutions of the compounds. Cells on 96-well plates were incubated with the compounds for 72 hours at 37° C., 5% CO2. Subsequently, viability of the cells was measured using ATPlite kit (Perkin Elmer). For this purpose, 50 μL of lysis buffer (mammalian cell lysis solution) were added to a well of the 96-well plate and the plate was incubated for 10 minutes at 25° C. in a plate thermo-shaker with orbital stirring at 600 rpm. Then to a well of the 96-well plate 50 μL of substrate (substrate solution) were added and incubated for 15 minutes at in dark, in a plate thermo-shaker with orbital stirring at 600 rpm. After incubation time, luminescence intensity in a well was measured using Victor×Light luminometer (Perkin Elmer, Inc.).
On the basis of luminescence intensity measurements in well containing tested compounds at various concentrations and in control wells EC50 values were determined. These values were determined with Graph Pad software v. 5.03, by fitting points of the curve using non-linear regression method. Each compound was tested in at least 6 repetitions (6 wells) on two 96-well plates, using at least 3 wells of each control.
(In general: In ATP-based viability assays light output follows the ATP content of the culture.)

The structures appear in SMILES notation.

Recombinant kinase JAK2, sequence (O60674 whole entry): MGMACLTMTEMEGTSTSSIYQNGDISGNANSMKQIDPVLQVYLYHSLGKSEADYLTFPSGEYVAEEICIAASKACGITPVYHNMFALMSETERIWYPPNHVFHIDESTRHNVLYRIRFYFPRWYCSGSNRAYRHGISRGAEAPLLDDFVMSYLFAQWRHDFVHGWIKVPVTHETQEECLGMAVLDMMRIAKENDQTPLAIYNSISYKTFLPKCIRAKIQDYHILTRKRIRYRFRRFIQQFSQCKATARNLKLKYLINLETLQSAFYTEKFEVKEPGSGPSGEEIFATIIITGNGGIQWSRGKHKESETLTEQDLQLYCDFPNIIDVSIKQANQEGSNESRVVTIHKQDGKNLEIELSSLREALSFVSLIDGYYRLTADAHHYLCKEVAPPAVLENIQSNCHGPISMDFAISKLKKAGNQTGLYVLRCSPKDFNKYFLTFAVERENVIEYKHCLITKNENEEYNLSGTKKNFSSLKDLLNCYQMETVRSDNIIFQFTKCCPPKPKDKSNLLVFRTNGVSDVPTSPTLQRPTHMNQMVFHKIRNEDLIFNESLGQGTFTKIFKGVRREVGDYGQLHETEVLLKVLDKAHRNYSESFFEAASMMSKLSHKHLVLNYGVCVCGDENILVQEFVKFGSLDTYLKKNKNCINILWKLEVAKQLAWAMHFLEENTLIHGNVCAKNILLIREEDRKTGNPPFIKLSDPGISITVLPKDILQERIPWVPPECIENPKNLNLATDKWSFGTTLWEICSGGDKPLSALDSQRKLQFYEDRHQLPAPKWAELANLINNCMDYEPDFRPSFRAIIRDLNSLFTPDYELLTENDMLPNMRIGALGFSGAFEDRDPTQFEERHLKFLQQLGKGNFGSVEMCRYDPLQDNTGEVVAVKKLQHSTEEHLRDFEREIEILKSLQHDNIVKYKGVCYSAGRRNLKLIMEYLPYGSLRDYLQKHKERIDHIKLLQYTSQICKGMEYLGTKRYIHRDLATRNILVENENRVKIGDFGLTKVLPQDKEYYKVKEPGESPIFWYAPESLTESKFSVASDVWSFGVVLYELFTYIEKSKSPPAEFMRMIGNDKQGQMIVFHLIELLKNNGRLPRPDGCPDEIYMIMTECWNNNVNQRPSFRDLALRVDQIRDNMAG
Recombinant kinase JAK3, sequence (P52333 whole entry): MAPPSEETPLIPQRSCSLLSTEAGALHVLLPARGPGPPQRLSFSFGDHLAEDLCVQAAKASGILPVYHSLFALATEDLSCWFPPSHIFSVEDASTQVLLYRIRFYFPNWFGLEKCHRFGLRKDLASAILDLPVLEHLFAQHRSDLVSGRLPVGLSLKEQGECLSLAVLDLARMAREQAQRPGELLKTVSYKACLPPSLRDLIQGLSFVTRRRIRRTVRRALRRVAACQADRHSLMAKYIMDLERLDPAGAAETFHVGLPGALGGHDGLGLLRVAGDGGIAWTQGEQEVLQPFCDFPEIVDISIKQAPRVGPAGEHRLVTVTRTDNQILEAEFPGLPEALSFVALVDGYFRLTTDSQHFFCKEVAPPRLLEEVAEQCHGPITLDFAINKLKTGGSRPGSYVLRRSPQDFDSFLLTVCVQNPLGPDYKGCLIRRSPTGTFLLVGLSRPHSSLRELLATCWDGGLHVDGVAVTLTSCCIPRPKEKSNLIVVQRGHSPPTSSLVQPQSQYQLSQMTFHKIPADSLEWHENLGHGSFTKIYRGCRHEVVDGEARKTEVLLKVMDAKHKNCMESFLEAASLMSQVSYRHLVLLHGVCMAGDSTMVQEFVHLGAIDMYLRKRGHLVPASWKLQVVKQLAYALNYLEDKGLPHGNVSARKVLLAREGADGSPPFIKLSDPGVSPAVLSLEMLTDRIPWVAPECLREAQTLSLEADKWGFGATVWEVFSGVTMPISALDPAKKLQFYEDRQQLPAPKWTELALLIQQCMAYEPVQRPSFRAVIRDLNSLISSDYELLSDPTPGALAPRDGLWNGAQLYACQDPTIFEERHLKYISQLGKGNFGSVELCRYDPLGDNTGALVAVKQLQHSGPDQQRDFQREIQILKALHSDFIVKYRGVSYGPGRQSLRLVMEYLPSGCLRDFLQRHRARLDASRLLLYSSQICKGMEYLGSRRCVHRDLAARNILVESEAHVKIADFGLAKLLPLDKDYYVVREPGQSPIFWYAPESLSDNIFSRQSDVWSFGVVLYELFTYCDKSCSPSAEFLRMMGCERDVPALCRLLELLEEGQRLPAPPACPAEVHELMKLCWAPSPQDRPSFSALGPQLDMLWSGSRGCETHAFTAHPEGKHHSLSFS
Recombinant kinase JAK1, sequence (P23458 whole entry): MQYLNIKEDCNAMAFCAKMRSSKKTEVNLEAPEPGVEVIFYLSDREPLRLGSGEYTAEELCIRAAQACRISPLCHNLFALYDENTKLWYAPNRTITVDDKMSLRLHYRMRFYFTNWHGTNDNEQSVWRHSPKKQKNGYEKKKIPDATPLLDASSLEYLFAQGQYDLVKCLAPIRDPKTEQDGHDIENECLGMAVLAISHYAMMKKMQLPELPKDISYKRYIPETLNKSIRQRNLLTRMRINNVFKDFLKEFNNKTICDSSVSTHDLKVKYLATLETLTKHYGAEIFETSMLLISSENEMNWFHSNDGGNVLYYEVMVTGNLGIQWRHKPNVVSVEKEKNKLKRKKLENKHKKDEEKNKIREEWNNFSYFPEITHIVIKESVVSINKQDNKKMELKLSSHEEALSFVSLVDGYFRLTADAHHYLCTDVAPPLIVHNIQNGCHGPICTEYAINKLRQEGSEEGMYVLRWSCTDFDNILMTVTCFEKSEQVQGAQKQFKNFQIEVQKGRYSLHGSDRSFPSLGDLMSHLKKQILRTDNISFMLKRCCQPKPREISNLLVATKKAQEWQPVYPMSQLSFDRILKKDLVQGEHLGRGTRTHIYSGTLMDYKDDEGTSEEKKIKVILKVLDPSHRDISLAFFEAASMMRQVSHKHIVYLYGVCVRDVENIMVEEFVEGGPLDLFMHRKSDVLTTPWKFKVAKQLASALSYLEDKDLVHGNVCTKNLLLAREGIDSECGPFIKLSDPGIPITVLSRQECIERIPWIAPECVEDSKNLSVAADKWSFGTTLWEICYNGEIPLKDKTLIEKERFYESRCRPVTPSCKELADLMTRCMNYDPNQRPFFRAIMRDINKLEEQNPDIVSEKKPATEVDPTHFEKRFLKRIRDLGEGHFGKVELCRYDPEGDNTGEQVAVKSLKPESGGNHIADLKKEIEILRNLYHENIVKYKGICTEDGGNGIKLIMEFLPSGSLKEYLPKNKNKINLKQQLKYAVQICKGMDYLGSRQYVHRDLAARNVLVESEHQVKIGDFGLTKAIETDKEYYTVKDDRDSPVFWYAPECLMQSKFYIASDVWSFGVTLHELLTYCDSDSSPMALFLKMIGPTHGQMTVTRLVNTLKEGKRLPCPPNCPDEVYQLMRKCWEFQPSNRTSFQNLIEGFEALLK

Take `COc1ccc(-c2cc3ncc(C(N)=O)c(N[C@@H]4CCN(c5ccc(C#N)nn5)CC4(C)C)n3n2)cc1` [Example 1, (R)-7-((1-(6-Cyanopyridazin-3-yl)-3,3-dimethylpiperidin-4-yl)amino)-2-(4-methoxy-phenyl)pyrazolo[1,5-a]pyrimidine-6-carboxamide]: the IC50 at Recombinant kinase JAK1 is 1.8 nM; at Recombinant kinase JAK2, 19 nM; on Recombinant kinase JAK3 it was 1.2 nM; in the assay with TF-1 cells [1], 837 nM; in the assay with TF-1 cells [2] it was 350 nM. Besides, the “JAK2/JAK1,3 Ratio” value in the assay with TF-1 cells [2] came out at 2.4.

As for `COc1ccc(F)c(-c2cc3ncc(C(N)=O)c(N[C@@H]4CCN(c5ccc(C#N)nn5)CC4(C)C)n3n2)c1` [Example 2, (R)-7-((1-(6-Cyanopyridazin-3-yl)-3,3-dimethylpiperidin-4-yl)amino)-2-(2-fluoro-5-methoxyphenyl)pyrazolo[1,5-a]pyrimidine-6-carboxamide], the IC50 stood at 3.74 nM at Recombinant kinase JAK1; 59.3 nM at Recombinant kinase JAK2; 3.77 nM on Recombinant kinase JAK3; 1200 nM in the assay on TF-1 cells [1]; 242 nM in the assay with TF-1 cells [2]. The “JAK2/JAK1,3 Ratio” value in the assay with TF-1 cells [2] was 5.

For the compound `CC1(C)CN(c2ccc(C#N)nn2)CC[C@H]1Nc1c(C(N)=O)cnc2cc(-c3cccnc3)nn12` [Example 3, (R)-7-((1-(6-Cyanopyridazin-3-yl)-3,3-dimethylpiperidin-4-yl)amino)-2-(pyridin-3-yl)pyrazolo[1,5-a]pyrimidine-6-carboxamide], the IC50 on Recombinant kinase JAK1 amounted to 4.47 nM; on Recombinant kinase JAK2, 31.1 nM; on Recombinant kinase JAK3, 1.58 nM.

As to `CCOc1ccc(-c2cc3ncc(C(N)=O)c(N[C@@H]4CCN(c5ccc(C#N)nn5)CC4(C)C)n3n2)cn1` [Example 5, (R)-7-((1-(6-Cyanopyridazin-3-yl)-3,3-dimethylpiperidin-4-yl)amino)-2-(6-ethoxy-pyridin-3-yl)pyrazolo[1,5-a]pyridimine-6-carboxamide], the results for the IC50 at Recombinant kinase JAK1, at Recombinant kinase JAK2 and on Recombinant kinase JAK3 were 8.08 nM, 34.4 nM and 1.8 nM, respectively.

Take `CC1(C)CN(c2ccc(C#N)nn2)CC[C@H]1Nc1c(C(N)=O)cnc2cc(-c3ccc(N)nc3)nn12` [Example 6, (R)-2-(6-Aminopyridin-3-yl)-7-((1-(6-cyanopyridazin-3-yl)-3,3-dimethylpiperidin-4-yl)amino)pyrazolo[1,5-a]pyrimidine-6-carboxamide]: the IC50 was found to be 0.38 nM at Recombinant kinase JAK1; 2.98 nM at Recombinant kinase JAK2; 0.16 nM on Recombinant kinase JAK3; 3330 nM in the assay on TF-1 cells [1]; 361 nM with TF-1 cells [2]. Further, the “JAK2/JAK1,3 Ratio” value in the assay on TF-1 cells [2] came out at 9.2.

For `COc1ncc(-c2cc3ncc(C(N)=O)c(N[C@@H]4CCN(c5ccc(C#N)nn5)CC4(C)C)n3n2)cn1` [Example 8, (R)-7-((1-(6-Cyanopyridazin-3-yl)-3,3-dimethylpiperidin-4-yl)amino)-2-(2-methoxy-pyrimidin-5-yl)pyrazolo[1,5-a]pyrimidine-6-carboxamide], the IC50 came to 8.54 nM on Recombinant kinase JAK1; 26.8 nM on Recombinant kinase JAK2; 2.24 nM at Recombinant kinase JAK3; 2020 nM in the assay with TF-1 cells [1]; 203 nM in the assay on TF-1 cells [2]. Also, the “JAK2/JAK1,3 Ratio” value in the assay with TF-1 cells [2] is listed as 10.

With `CCOc1ncc(-c2cc3ncc(C(N)=O)c(N[C@@H]4CCN(c5ccc(C#N)nn5)CC4(C)C)n3n2)cn1` [Example 9, (R)-7-((1-(6-Cyanopyridazin-3-yl)-3,3-dimethylpiperidin-4-yl)amino)-2-(2-ethoxy-pyrimidin-5-yl)pyrazolo[1,5-a]pyrimidine-6-carboxamide], the IC50 is 47.5 nM on Recombinant kinase JAK1, 89.6 nM at Recombinant kinase JAK2 and 18.8 nM at Recombinant kinase JAK3.

On to `CC1(C)CN(c2ccc(C#N)nn2)CC[C@H]1Nc1c(C(N)=O)cnc2cc(-c3ccc(F)nc3)nn12` [Example 10, (R)-7-((1-(6-Cyanopyridazin-3-yl)-3,3-dimethylpiperidin-4-yl)amino)-2-(6-fluoro-pyridin-3-yl)pyrazolo[1,5-a]pyrimidine-6-carboxamide], for which the IC50 on Recombinant kinase JAK1 was found to be 2.37 nM; at Recombinant kinase JAK2, 12.8 nM; at Recombinant kinase JAK3, 0.6 nM; in the assay with TF-1 cells [1], 1280 nM; with TF-1 cells [2], 112 nM. In addition, the “JAK2/JAK1,3 Ratio” value in the assay with TF-1 cells [2] was 11.5.
